# In US20140242093A1, “METHODS AND COMPOSITIONS FOR MODULATING THE INNATE IMMUNE RESPONSE AND/OR MYOGENESIS IN A MAMMALIAN SUBJECT” (FRED HUTCHINSON CANCER RESEARCH CENTER, priority 2011, published 2014):
# Columns and labels:
# MaLR transcripts (THE1) = assay: MaLR expression analysis by real-time PCR; assay type: cell-based, human; conditions: RT-PCR, transduced muscle cells
# Procedure: Real-time PCR was performed as described above. Water and minus RT controls were checked to ensure there was no amplification of these repetitive elements from residual or contaminating genomic DNA.
# [1] = test system: normal skeletal muscle cells; assay: RT-PCR of cancer testis antigens in transduced normal skeletal muscle cells; assay type: cell-based, human; conditions: RT-PCR vs lenti-GFP
# Text: The results were normalized to an internal control standard of either 18S or GAPDH.
# [2] = test system: cultured control skeletal muscle; assay: RT-PCR validation of microarray gene targets; assay type: cell-based, human; conditions: FIG. 1
# Procedure: RNA was collected from cultured control skeletal muscle either transduced with a DUX4-fl expressing lentivirus (+) or not transduced (−). RPL13A was used as an internal standard. Total RNA was treated with DNase using TURBO DNA-free kit (Ambion) according to manufacturer's protocol. One μg of DNase-treated RNA was reverse transcribed to first strand cDNA with SuperScript III and anchored oligo dT (Invitrogen) at 52° C. for 1 h. Residual RNA was digested with RNase H at 37° C. for 20 min. cDNA was used in various PCR and real-time PCR reactions with primers listed below.
# The primers shown below were designed to span exon-exon junctions where possible. Primers from select genes were also used in real-time PCR reactions to examine endogenous expression of targets in FSHD versus control samples described separately.
# [3] = test system: HCT116, primary dendritic cells, JJ and FS; assay: Real-time PCR of PRAMEF1 in transduced HCT116, primary dendritic cells, JJ and FS cell lines; assay type: cell-based, human
# Procedure: HCT116 cells were infected with a control lenti-GFP or with lenti-DUX4-fl and the abundance of PRAMEF1 mRNA measured relative to a constitutively expressed gene, RPL13a.
# Primary dendritic cells and the tumor cell lines derived from patients with chondrosarcomas designated JJ and FS (described in Jagasia, et al., 1996, supra) were transduced with lentiviral constructs expressing a control gene, green fluorescent protein (GFP), or DUX4fl. PRAMEF1 mRNA was measured by real-time PCR relative to a constitutively expressed control, RPL13a.
# [4] = test system: human rhabdomyosarcoma cell line RD; assay: Luciferase reporter assay with DUX4 binding sites; assay type: cell-based
# Procedure: The DUX4 binding site in the ZSCAN4 pGL3-promoter construct was either reversed in orientation (as shown in FIG. 3D) or moved downstream of the reporter gene (as shown in FIG. 3E). […] Transfections and luciferase assays were done as in main methods. Data are given as the averages±SD of triplicates.
# Transient DNA transfections of RD cells were performed using SuperFect (Qiagen) according to manufacturer specifications. Briefly, 3×10^5 cells were seeded per 35 mm plate the day prior to transfection. […] Cells were lysed 24 h post-transfection in Passive Lysis Buffer (Promega). Luciferase activities were quantified using reagents from the Dual-Luciferase Reporter Assay System (Promega) following manufacturer's instructions. Light emission was measured using BioTek Synergy2 luminometer. Luciferase data are given as the averages±SD of at least triplicates.
# Human myoblasts = assay: Expression array of the innate immune response to lentiviral infection versus uninfected cells; assay type: cell-based
# Procedure: RNA was harvested from the lenti-viral infected cells and uninfected control cells at 24 hours after infection.
substance,measurement,setting,value
"DUX4-fl: full-length DUX4 protein (SEQ ID NO:110), expressed from lentiviral or pCS2 vectors or in vitro translated",endogenous MaLR transcripts,MaLR transcripts (THE1),induction of endogenous MaLR transcripts
same,"induction of cancer testis antigens BAGE, MAGEA4, MAGEA9, SSX1, SSX2, SSX4 and a PRAME family member",[1],over 2 fold
same,number of DUX4-fl regulated genes with differential expression validated by RT-PCR,[2],15 genes
same,PRAMEF1 gene expression,[3],robust activation of the PRAMEF1 gene
same,luciferase reporter with DUX4 binding sites from LTRs at a MaLR THE1D element,[4],activated transcription of a luciferase reporter
same,luciferase expression from pGL3-promoter reporter with 31 bp DUX4 binding site,"[4]; TRIM48 or ZSCAN4 site, co-transfection in RD cells",significantly induced luciferase expression
same,"induction of viral RNA sensors LGP2 (DHX58), IFIH1 (MDA5), DDX58 (RIG-1)",Human myoblasts,suppresses the induction of the three primary sensors of viral RNA
same,number of the 341 genes induced within 50% of the level of induction by lenti-GFP,Human myoblasts,24 genes
same,share of lentivirus-induced genes whose induction is suppressed,Human myoblasts; 317 out of 341,93%
same,DEFB103A and DEFB103B transcripts,Human myoblasts; expression array,activated
same,CCL2 expression ratio vs GFP (.fc),"Human myoblasts; gene CCL2 NM_002982.3, vs lenti-GFP, 24 hours after infection",−2.68 log2 fold change
same,CCL2 expression ratio vs NoLenti (.fc),"Human myoblasts; gene CCL2 NM_002982.3, vs uninfected, 24 hours after infection",0.01 log2 fold change
same,CCL5 expression ratio vs GFP (.fc),"Human myoblasts; gene CCL5 NM_002985.2, vs lenti-GFP, 24 hours after infection",−2.53 log2 fold change
same,CCL5 expression ratio vs NoLenti (.fc),"Human myoblasts; gene CCL5 NM_002985.2, vs uninfected, 24 hours after infection",0.22 log2 fold change
same,CXCL1 expression ratio vs GFP (.fc),"Human myoblasts; gene CXCL1 NM_001511.1, vs lenti-GFP, 24 hours after infection",−3.52 log2 fold change
same,CXCL1 expression ratio vs NoLenti (.fc),"Human myoblasts; gene CXCL1 NM_001511.1, vs uninfected, 24 hours after infection",−0.04 log2 fold change
same,CXCL2 expression ratio vs GFP (.fc),"Human myoblasts; gene CXCL2 NM_002089.3, vs lenti-GFP, 24 hours after infection",−1.34 log2 fold change
same,CXCL2 expression ratio vs NoLenti (.fc),"Human myoblasts; gene CXCL2 NM_002089.3, vs uninfected, 24 hours after infection",−0.04 log2 fold change
same,CXCL5 expression ratio vs GFP (.fc),"Human myoblasts; gene CXCL5 NM_002994.3, vs lenti-GFP, 24 hours after infection",−2.47 log2 fold change
same,CXCL5 expression ratio vs NoLenti (.fc),"Human myoblasts; gene CXCL5 NM_002994.3, vs uninfected, 24 hours after infection",−0.37 log2 fold change
same,CXCL6 expression ratio vs GFP (.fc),"Human myoblasts; gene CXCL6 NM_002993.2, vs lenti-GFP, 24 hours after infection",−1.99 log2 fold change
same,CXCL6 expression ratio vs NoLenti (.fc),"Human myoblasts; gene CXCL6 NM_002993.2, vs uninfected, 24 hours after infection",−0.10 log2 fold change
same,DDX58 expression ratio vs GFP (.fc),"Human myoblasts; gene DDX58 NM_014314.3, vs lenti-GFP, 24 hours after infection",−2.47 log2 fold change
same,DDX58 expression ratio vs NoLenti (.fc),"Human myoblasts; gene DDX58 NM_014314.3, vs uninfected, 24 hours after infection",−0.18 log2 fold change
same,DHX58 (LGP2) expression ratio vs GFP (.fc),"Human myoblasts; gene DHX58 NM_024119.2, vs lenti-GFP, 24 hours after infection",−2.84 log2 fold change
same,DHX58 (LGP2) expression ratio vs NoLenti (.fc),"Human myoblasts; gene DHX58 NM_024119.2, vs uninfected, 24 hours after infection",−0.17 log2 fold change
same,IFI6 expression ratio vs GFP (.fc),"Human myoblasts; gene IFI6 NM_022872.2, vs lenti-GFP, 24 hours after infection",−4.24 log2 fold change
same,IFI6 expression ratio vs NoLenti (.fc),"Human myoblasts; gene IFI6 NM_022872.2, vs uninfected, 24 hours after infection",0.82 log2 fold change
same,IFI16 expression ratio vs GFP (.fc),"Human myoblasts; gene IFI16 NM_005531.1, vs lenti-GFP, 24 hours after infection",−2.01 log2 fold change
same,IFI16 expression ratio vs NoLenti (.fc),"Human myoblasts; gene IFI16 NM_005531.1, vs uninfected, 24 hours after infection",−0.14 log2 fold change
same,IFI27 expression ratio vs GFP (.fc),"Human myoblasts; gene IFI27 NM_005532.3, vs lenti-GFP, 24 hours after infection",−6.53 log2 fold change
same,IFI27 expression ratio vs NoLenti (.fc),"Human myoblasts; gene IFI27 NM_005532.3, vs uninfected, 24 hours after infection",0.92 log2 fold change
same,IFI35 expression ratio vs GFP (.fc),"Human myoblasts; gene IFI35 NM_005533.2, vs lenti-GFP, 24 hours after infection",−3.85 log2 fold change
same,IFI35 expression ratio vs NoLenti (.fc),"Human myoblasts; gene IFI35 NM_005533.2, vs uninfected, 24 hours after infection",−0.32 log2 fold change
same,IFI44L expression ratio vs GFP (.fc),"Human myoblasts; gene IFI44L NM_006820.1, vs lenti-GFP, 24 hours after infection",−5.12 log2 fold change
same,IFI44L expression ratio vs NoLenti (.fc),"Human myoblasts; gene IFI44L NM_006820.1, vs uninfected, 24 hours after infection",0.74 log2 fold change
same,IFI44 expression ratio vs GFP (.fc),"Human myoblasts; gene IFI44 NM_006417.3, vs lenti-GFP, 24 hours after infection",−2.42 log2 fold change
same,IFI44 expression ratio vs NoLenti (.fc),"Human myoblasts; gene IFI44 NM_006417.3, vs uninfected, 24 hours after infection",0.90 log2 fold change
same,IFIH1 (MDA5) expression ratio vs GFP (.fc),"Human myoblasts; gene IFIH1 NM_022168.2, vs lenti-GFP, 24 hours after infection",−3.70 log2 fold change
same,IFIH1 (MDA5) expression ratio vs NoLenti (.fc),"Human myoblasts; gene IFIH1 NM_022168.2, vs uninfected, 24 hours after infection",0.25 log2 fold change
same,IFIT1 expression ratio vs GFP (.fc),"Human myoblasts; gene IFIT1 NM_001548.3, vs lenti-GFP, 24 hours after infection",−4.38 log2 fold change
same,IFIT1 expression ratio vs NoLenti (.fc),"Human myoblasts; gene IFIT1 NM_001548.3, vs uninfected, 24 hours after infection",0.43 log2 fold change
same,IFIT3 expression ratio vs GFP (.fc),"Human myoblasts; gene IFIT3 NM_001549.2, vs lenti-GFP, 24 hours after infection",−3.86 log2 fold change
same,IFIT3 expression ratio vs NoLenti (.fc),"Human myoblasts; gene IFIT3 NM_001549.2, vs uninfected, 24 hours after infection",0.04 log2 fold change
same,IFIT5 expression ratio vs GFP (.fc),"Human myoblasts; gene IFIT5 NM_012420.1, vs lenti-GFP, 24 hours after infection",−1.65 log2 fold change
same,IFIT5 expression ratio vs NoLenti (.fc),"Human myoblasts; gene IFIT5 NM_012420.1, vs uninfected, 24 hours after infection",−0.36 log2 fold change
same,IFITM1 expression ratio vs GFP (.fc),"Human myoblasts; gene IFITM1 NM_003641.3, vs lenti-GFP, 24 hours after infection",−6.12 log2 fold change
same,IFITM1 expression ratio vs NoLenti (.fc),"Human myoblasts; gene IFITM1 NM_003641.3, vs uninfected, 24 hours after infection",0.73 log2 fold change
